Test results: ChEMBL document CHEMBL1201862, “PubChem BioAssay data set” (2004)
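Where inhibition never reached the appropriate level, the endpoint shown equals the highest concentration tested. Otherwise, values were interpolated linearly from a five-concentration, 48-hour dose response in 96-well plates. At the GI50, growth is halved.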 Active and inactive are the calls of the source. No stated cut-off is given here; in the data, active = GI50 up to about 1.1 µM and inactive = higher.

Columns and labels:
Assay in all cases: NCI anticancer screen, dose series, 48 h
786-0 = system: 786-0
A498 = system: A498
A549 = system: A549
ACHN = system: ACHN
BT-549 = system: BT-549
CAKI-1 = system: CAKI-1
CCRF-CEM = system: CCRF-CEM
COLO 205 = system: COLO 205
DU-145 = system: DU-145
EKVX = system: EKVX
HCC 2998 = system: HCC 2998
HCT-116 = system: HCT-116
HCT-15 = system: HCT-15
HL-60 = system: HL-60
HOP-62 = system: HOP-62
HOP-92 = system: HOP-92
HT-29 = system: HT-29
Hs-578T = system: Hs-578T
IGROV-1 = system: IGROV-1
K562 = system: K562
KM12 = system: KM12
LOX IMVI = system: LOX IMVI
M14 = system: M14
MCF7 = system: MCF7
MDA-MB-435 = system: MDA-MB-435
MDA-N = system: MDA-N
MOLT-4 = system: MOLT-4
Malme-3M = system: Malme-3M
NCI-H23 = system: NCI-H23
NCI-H460 = system: NCI-H460
NCI-H522 = system: NCI-H522
NCI/ADR-RES = system: NCI/ADR-RES
OVCAR-3 = system: OVCAR-3
OVCAR-4 = system: OVCAR-4
OVCAR-5 = system: OVCAR-5
OVCAR-8 = system: OVCAR-8
PC-3 = system: PC-3
RPMI-8226 = system: RPMI-8226
RXF 393 = system: RXF 393
SF-268 = system: SF-268
SF-295 = system: SF-295
SF-539 = system: SF-539
SK-MEL-28 = system: SK-MEL-28
SK-MEL-2 = system: SK-MEL-2
SK-MEL-5 = system: SK-MEL-5
SK-OV-3 = system: SK-OV-3
SN12C = system: SN12C
SNB-19 = system: SNB-19
SNB-75 = system: SNB-75
SR = system: SR
SW-620 = system: SW-620
T47D = system: T47D
TK-10 = system: TK-10
U-251 = system: U-251
UACC-257 = system: UACC-257
UACC-62 = system: UACC-62
UO-31 = system: UO-31

`CC(C)(C)c1ccc(-c2nc3ccccc3c(=O)o2)cc1` was tested. Which GI50 (786-0) did it give?
Its GI50 is 74.6 µM (inactive).

What about the GI50 (A498) of the same compound?
The GI50 was 71.6 µM (inactive).

And the GI50 (A549)?
The GI50 was 27.9 µM (inactive).

What about the GI50 (ACHN) of the same compound?
The GI50 was 33.7 µM (inactive).

What about the GI50 (BT-549) of the same compound?
The GI50 was 24.2 µM (inactive).

What about the GI50 (CAKI-1) of the same compound?
Its GI50 is 86.3 µM (inactive).

And the GI50 (CCRF-CEM)?
Its GI50 is 19.3 µM (inactive).

And the GI50 (COLO 205)?
Its GI50 is 30.6 µM (inactive).

What about the GI50 (DU-145) of the same compound?
The GI50 was 59.7 µM (inactive).

And the GI50 (EKVX)?
The GI50 was 30.7 µM (inactive).

And the GI50 (HCC 2998)?
Its GI50 is 54.8 µM (inactive).

What about the GI50 (HCT-116) of the same compound?
The GI50 was 38.7 µM (inactive).

And the GI50 (HCT-15)?
The GI50 was 37.5 µM.

And the GI50 (HL-60)?
The GI50 was 23.1 µM (inactive).

And the GI50 (HOP-62)?
The GI50 was 31.8 µM (inactive).

And the GI50 (HOP-92)?
Its GI50 is 28 µM (inactive).

What about the GI50 (HT-29) of the same compound?
The GI50 was 42 µM (inactive).

What about the GI50 (Hs-578T) of the same compound?
Its GI50 is 68.7 µM (inactive).

And the GI50 (IGROV-1)?
The GI50 was 37.3 µM (inactive).

And the GI50 (K562)?
The GI50 was 35.6 µM (inactive).

And the GI50 (KM12)?
Its GI50 is 29.1 µM (inactive).

And the GI50 (LOX IMVI)?
The GI50 was 18.7 µM (inactive).

And the GI50 (M14)?
The GI50 was 42.3 µM (inactive).

And the GI50 (MCF7)?
Its GI50 is 27.7 µM (inactive).

What about the GI50 (MDA-MB-435) of the same compound?
The GI50 was > 100 µM (inactive).

What about the GI50 (MDA-N) of the same compound?
Its GI50 is 41.2 µM (inactive).

And the GI50 (MOLT-4)?
The GI50 was 20.4 µM (inactive).

And the GI50 (Malme-3M)?
Its GI50 is 35.8 µM (inactive).

And the GI50 (NCI-H23)?
Its GI50 is 34.3 µM (inactive).

And the GI50 (NCI-H460)?
The GI50 was 33.3 µM (inactive).

And the GI50 (NCI-H522)?
The GI50 was 30.3 µM (inactive).

What about the GI50 (NCI/ADR-RES) of the same compound?
The GI50 was 55.2 µM (inactive).

And the GI50 (OVCAR-3)?
The GI50 was 24.5 µM (inactive).

And the GI50 (OVCAR-4)?
The GI50 was 35.7 µM (inactive).

What about the GI50 (OVCAR-5) of the same compound?
Its GI50 is 44.2 µM (inactive).

What about the GI50 (OVCAR-8) of the same compound?
Its GI50 is 47.4 µM (inactive).

What about the GI50 (PC-3) of the same compound?
Its GI50 is 38.4 µM (inactive).

And the GI50 (RPMI-8226)?
Its GI50 is 25.5 µM (inactive).

And the GI50 (RXF 393)?
Its GI50 is 95.9 µM (inactive).

What about the GI50 (SF-268) of the same compound?
Its GI50 is 53.6 µM (inactive).

What about the GI50 (SF-295) of the same compound?
Its GI50 is 23.8 µM (inactive).

And the GI50 (SF-539)?
Its GI50 is 40.6 µM (inactive).

What about the GI50 (SK-MEL-28) of the same compound?
Its GI50 is 42.5 µM (inactive).

And the GI50 (SK-MEL-2)?
The GI50 was 22.8 µM (inactive).

And the GI50 (SK-MEL-5)?
Its GI50 is 17 µM (inactive).

And the GI50 (SK-OV-3)?
The GI50 was 83.4 µM (inactive).

And the GI50 (SN12C)?
Its GI50 is 34.3 µM (inactive).

What about the GI50 (SNB-19) of the same compound?
Its GI50 is 43.1 µM (inactive).

And the GI50 (SNB-75)?
Its GI50 is 24 µM (inactive).

And the GI50 (SR)?
The GI50 was 22.5 µM (inactive).

What about the GI50 (SW-620) of the same compound?
The GI50 was 48.2 µM (inactive).

And the GI50 (T47D)?
Its GI50 is 39.8 µM (inactive).

What about the GI50 (TK-10) of the same compound?
The GI50 was 70.1 µM (inactive).

And the GI50 (U-251)?
Its GI50 is 40.6 µM (inactive).

What about the GI50 (UACC-257) of the same compound?
The GI50 was 81.3 µM (inactive).

And the GI50 (UACC-62)?
The GI50 was 30.3 µM (inactive).

What about the GI50 (UO-31) of the same compound?
Its GI50 is 43.1 µM (inactive).
